The data set is described as follows: Acute toxicity, oral, in mice. To be noted: mouse, in vivo; oral administration; young adult female mice of NMRI-strain; read-out: Acute toxicity, LD₅₀. How it is done: Acute toxicity, LD₅₀, was determined by using young adult female mice of NMRI-strain. The administration was oral. The LD₅₀-value for 4-[2,4-bis(4-fluorophenyl)butyl]-1H-imidazole was 400 mg/kg.

Results on one compound are retold here after EP0476944B1, “Aromatase inhibiting 4(5)-imidazoles” (ORION-YHTYMÄ OY, priority 1990, dated 1992).

Molecules are shown by their SMILES.

On to `Fc1ccc(CCC(Cc2c[nH]cn2)c2ccc(F)cc2)cc1` (stereo not shown) [Compound 3, 4-[2,4-bis(4-fluorophenyl)butyl]-1H-imidazole], for which the LD50 was 400 mg/kg.
